Reference: patent US7691420B2, “Compositions for the treatment and prevention of diabetes mellitus” (priority 2003, dated 2010)
“Also recorded” adds a separate entry of the source. Marks after values point to notes of the source that are not given here.

Key:
[1] = tested on: C3H10T1/2; test: Adipocyte differentiation of C3H10T1/2 cells, oil red O staining; assay type: cell-based; settings: for Optical Density: extracted oil red O stain after 11-day treatment, insulin 100 nM
Source text: After the 11-day treatment, the cells were stained with oil red O. This was followed by extraction of the stain for concentration determination.

[2] = tested on: C57BLKS/J db/db mice; test: Body weight, adipose tissue weight and food intake in the 4-week db/db mouse study; assay type: in vivo; settings: for Total adipose tissue weight / Body weight: 4 weeks feed-ad-mix, 1% EGCG and/or 0.038% rosiglitazone in diet, group means; for Total adipose tissue weight: by NMR; for Body weight: * vs control, # vs rosiglitazone (P<0.05)
Protocol: (§1) This model of late type 2 diabetes with severe hyperglycemia and obesity is widely used to determine the efficacy of anti-diabetic and anti-obesity compounds.
(§2) Male db/db mice were obtained from Jackson Laboratory (Bar Harbor, Me., USA). Adult mice aged 8 weeks were used in the experiment. Mice were housed individually in plastic cages with bedding and allowed free access to standard rodent food and tap water. The animal rooms were controlled for temperature (24° C.), humidity (55%), and light (12-h light-dark cycle). The animals were randomized into four groups. […] Body weight and food intake were determined over the course of the study. Total adipose tissue weight was determined by NMR. After four weeks of treatment an oral glucose tolerance test was carried out after an overnight fasting period. The blood glucose levels were measured before (fasted state glucose levels) application of an oral glucose load (1 g/kg body weight) and after 15, 30, 45, 60, 90, 120, 150 and 180 minutes. Area under the curve (AUC) was calculated from the resulting blood glucose curves and served as an indicator of glucose tolerance. At the end of the study, fed state levels of glucose, triglycerides and free fatty acids were determined in plasma. All data are expressed as means for animals in each group.

[3] = tested on: C57BLKS/J db/db mice; test: Oral glucose tolerance test and fasted state glucose in db/db mice after 4 weeks; assay type: in vivo; settings: for Fasted state glucose: blood, overnight fasting, before glucose load
Protocol: as §1, §2

[4] = tested on: C57BLKS/J db/db mice; test: Fed state plasma glucose, triglycerides and free fatty acids in db/db mice at end of study; assay type: in vivo; settings: 4 weeks
Protocol: as §1, §2

[5] = 1% EGCG and/or 0.038% rosiglitazone in diet
[6] = fed state plasma, 1% EGCG and/or 0.038% rosiglitazone in diet

Row | Compound | Adipocyte differentiation (result in words) ([1]; C3H10T1/2 cells, 11-day treatment, oil Red O staining) | Total adipose tissue weight [2] | Body weight [2] | Body weight and adipose tissue weight (result in words) ([2]; 4 weeks, compared to control mice) | Fasted state glucose [3, 5] | AUC ([3]; 1% EGCG and/or 0.038% rosiglitazone in diet, oral glucose load 1 g/kg, blood glucose curve 0-180 minutes) | Glucose tolerance (result in words) ([3]; AUC of oral glucose tolerance test) | Fasted state glucose levels (result in words) ([3]; compared to control mice) | Fed state plasma levels of glucose, triglycerides, and free fatty acids (result in words) [4] | Glucose [4, 6] | Triglycerides [4, 6] | Free fatty acids [4, 6] | Optical Density ([1]; Table 1, rosiglitazone 1 × 10^−5 M, pioglitazone 2.5 × 10^−5 M, EGCG 5 × 10^−5 M) | Optical Density ([1]; Table 2, ligustilide 50 × 10^−5 M, no EGCG)
1 | (−)-epigallocatechin gallate [EGCG] | blocked TZD-induced adipocyte differentiation; also recorded: blocked ligustilide-induced adipocyte differentiation | 20.9*# g | 38.8*# g | moderately decreased | 132.1* mg/dl | 38353.5* | significantly improved | significantly reduced | significantly reduced | 33.5*# mmol/l | 1.47* mmol/l | – | – | –
2 | CN(CCOc1ccc(CC2SC(=O)NC2=O)cc1)c1ccccn1 (stereo not shown) [Rosiglitazone, rosiglitazone, reference compound] | – | 29.0* g | 50.0* g | – | 98.0* mg/dl | – | – | – | – | 22.1* mmol/l | 1.01* mmol/l | 25.2* mmol/l | – | –
3 | Insulin: insulin, 100 nM, used alone as comparison in the adipocyte differentiation test [reference compound] | – | – | – | – | – | – | – | – | – | – | – | – | 0.21 ± 0.02 | 0.14 ± 0.01
